These results are taken from patent US20210087206A1, “MACROCYCLIC KINASE INHIBITORS AND THEIR USE” (TURNING POINT THERAPEUTICS, INC., priority 2017, published 2021).

What all share (assay): Cell proliferation assay (CellTiter-Glo)
Common to all, as to format: cell-based
A general note: Cellular ATP, detected with luciferase, serves as a proxy for viable cell number.

In one experiment the test system is KG-1 cell (OP2-FGFR1). The conditions noted are these: Homo sapiens, anti-cell proliferation, 72 hours. The method, then: (§1) Cell Lines and Cell Culture:
(§2) Colorectal cell line KM 12 (harboring endogenous TPM3-TRKA fusion gene) was obtained from NCI. Acute myelogenous cell line KG-1 (harboring endogenous OP2-FGFR1 fusion gene) were purchased from ATCC.
(§3) Cell Proliferation Assays:
(§4) Two thousand cells per well were seeded in 384 well white plate for 24 hrs, and then treated with compounds for 72 hours (37° C., 5% CO2). Cell proliferation was measured using CellTiter-Glo luciferase-based ATP detection assay (Promega) following the manufactures's protocol. IC50 determinations were performed using GraphPad Prism software (GraphPad, Inc., San Diego, Calif.).

Another experiment addresses T1, BaF3 EML4-ALK (Homo sapiens, UniProt Q9UM73).
T1 construct: The EML4-ALK gene (variant 1) was synthesized at GenScript and cloned into pCDH-CMV-MCS-EF1-Puro plasmid (System Biosciences, Inc); fused on or other part: EML4 N-terminal part (variant 1: exons 1-13, with the coiled-coil that oligomerises the fusion) fused to the intracellular part of ALK, which contains the kinase domain; Q9HC35 (Echinoderm microtubule-associated protein-like 4)
The note with it: anti-cell proliferation, 72 hours. On the procedure:
Cloning and Ba/F3 or NIH3T3 Stable Cell Line Creation
The EML4-ALK gene (variant 1) was synthesized at GenScript and cloned into pCDH-CMV-MCS-EF1-Puro plasmid (System Biosciences, Inc). Ba/F3-EML4-ALK wild type were generated by transducing Ba/F3 cells with lentivirus containing EML4-ALK wide type. Stable cell lines were selected by puromycin treatment, followed by IL-3 withdrawal. Briefly, 5×10^6 Ba/F3 cells were transduced with lentivirus supernatant in the presence of 8 μg/mL protamine sulfate. The transduced cells were subsequently selected with 1 μg/mL puromycin in the presence of IL3-containing medium RPMI1640, plus 10% FBS. After 10-12 days of selection, the surviving cells were further selected for IL3 independent growth.
as §3, §4

A further experiment relates to KM12 (TPM3-TRKA). The conditions noted are these: Homo sapiens, anti-cell proliferation, 72 hours. On the procedure: as §1, §2, §3, §4

Bounds are passed on as bounds.

T1 sequence (Q9UM73 whole entry, stated change not applied, the tested form may be a part): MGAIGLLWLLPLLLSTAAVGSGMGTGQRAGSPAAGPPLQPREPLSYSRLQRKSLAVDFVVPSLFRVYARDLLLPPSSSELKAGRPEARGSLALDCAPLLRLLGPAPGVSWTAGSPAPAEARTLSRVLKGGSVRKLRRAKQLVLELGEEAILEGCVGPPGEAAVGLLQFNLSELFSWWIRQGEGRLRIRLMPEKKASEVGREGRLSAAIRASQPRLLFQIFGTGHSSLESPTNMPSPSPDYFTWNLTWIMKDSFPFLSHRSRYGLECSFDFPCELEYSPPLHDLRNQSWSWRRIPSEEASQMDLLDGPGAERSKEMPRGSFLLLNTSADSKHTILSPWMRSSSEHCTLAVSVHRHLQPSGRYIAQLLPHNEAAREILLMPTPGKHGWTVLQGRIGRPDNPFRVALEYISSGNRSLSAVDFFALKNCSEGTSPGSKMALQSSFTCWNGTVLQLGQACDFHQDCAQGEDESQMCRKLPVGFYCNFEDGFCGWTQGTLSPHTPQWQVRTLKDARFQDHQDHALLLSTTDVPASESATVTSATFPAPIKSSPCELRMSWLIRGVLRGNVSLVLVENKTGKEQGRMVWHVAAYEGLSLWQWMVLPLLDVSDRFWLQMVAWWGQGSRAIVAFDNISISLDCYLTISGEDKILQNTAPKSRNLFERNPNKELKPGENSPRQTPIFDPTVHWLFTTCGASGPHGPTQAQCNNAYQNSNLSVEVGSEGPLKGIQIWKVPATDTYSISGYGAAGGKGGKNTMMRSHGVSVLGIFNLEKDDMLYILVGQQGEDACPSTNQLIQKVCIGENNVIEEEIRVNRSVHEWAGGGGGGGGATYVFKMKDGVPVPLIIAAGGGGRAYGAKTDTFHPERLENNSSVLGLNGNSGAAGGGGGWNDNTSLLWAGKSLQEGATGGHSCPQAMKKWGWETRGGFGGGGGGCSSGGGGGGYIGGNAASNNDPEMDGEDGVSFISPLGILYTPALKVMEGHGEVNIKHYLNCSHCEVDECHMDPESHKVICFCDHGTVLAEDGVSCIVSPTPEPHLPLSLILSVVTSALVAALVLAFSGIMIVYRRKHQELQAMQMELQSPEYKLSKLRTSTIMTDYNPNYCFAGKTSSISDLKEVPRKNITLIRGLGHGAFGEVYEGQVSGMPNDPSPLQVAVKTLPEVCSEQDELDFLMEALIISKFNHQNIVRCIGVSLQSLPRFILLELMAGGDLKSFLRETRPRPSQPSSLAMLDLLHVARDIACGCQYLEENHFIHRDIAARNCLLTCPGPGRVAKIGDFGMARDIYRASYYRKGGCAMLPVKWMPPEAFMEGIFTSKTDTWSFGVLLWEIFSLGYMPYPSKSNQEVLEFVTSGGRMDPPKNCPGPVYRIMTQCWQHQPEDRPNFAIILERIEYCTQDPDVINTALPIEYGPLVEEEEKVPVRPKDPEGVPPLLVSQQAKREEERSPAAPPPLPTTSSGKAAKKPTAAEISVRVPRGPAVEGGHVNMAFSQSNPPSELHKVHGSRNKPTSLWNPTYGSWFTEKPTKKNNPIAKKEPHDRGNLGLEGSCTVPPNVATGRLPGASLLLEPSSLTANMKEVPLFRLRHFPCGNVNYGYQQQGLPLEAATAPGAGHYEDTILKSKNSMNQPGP

By IC50 is commonly meant the concentration that gives 50% inhibition. Turning to `CC[C@@H]1COc2ncc(F)cc2CN2c3nc4c(cnn4cc3OC[C@H]2C)C(=O)N1` [Compound 24, (4R,13R)-13-ethyl-8-fluoro-4-methyl-3,4,13,14-tetrahydro-6H-18,1-(metheno)[1,4]oxazino[3,4-i]pyrazolo[4,3-f]pyrido[3,2-l] [1,4,8,10]oxatriazacyclotridecin-15(12H)-one], the results for the IC50 in the experiment on KG-1 cell (OP2-FGFR1) and against BaF3 EML4-ALK were 50 nM and 104 nM, respectively.

`C[C@H]1CNC(=O)c2cnn3cc4c(nc23)N(Cc2cc(F)cnc2O1)C(C)(C)CO4` [Compound 37, (12S)-8-fluoro-4,4,12-trimethyl-3,4,13,14-tetrahydro-6H-18,1-(metheno)[1,4]oxazino[3,4-i]-pyrazolo[4,3-f]pyrido[3,2-l] [1,4,8,10]oxatriazacyclotridecin-15(12H)-one]: the IC50 in the experiment on KG-1 cell (OP2-FGFR1) is 5000 nM; against BaF3 EML4-ALK, 1550 nM.

Take `C[C@H]1CNC(=O)c2cnn3cc4c(nc23)N(Cc2cc(F)cnc2O1)[C@H](Cc1ccccc1)CO4` [Compound 38, (4R,12S)-4-benzyl-8-fluoro-12-methyl-3,4,13,14-tetrahydro-6H-18,1-(metheno)[1,4]oxazino[3,4-i]pyrazolo[4,3-f]pyrido[3,2-l] [1,4,8,10]oxatriazacyclotridecin-15(12H)-one]: the results for the IC50 in the experiment on KG-1 cell (OP2-FGFR1) and at BaF3 EML4-ALK were 357 nM and 7240 nM, respectively.

In the case of `C[C@@H]1COc2ncc(F)cc2CN2c3nc4c(cnn4cc3OC[C@H]2Cc2ccccc2)C(=O)N1` [Compound 39, (4R,13R)-4-benzyl-8-fluoro-13-methyl-3,4,13,14-tetrahydro-6H-18,1-(metheno)[1,4]oxazino[3,4-i]pyrazolo[4,3-f]pyrido[3,2-l] [1,4,8,10]oxatriazacyclotridecin-15(12H)-one], the half-maximal inhibitory concentration (IC50) in the experiment on KG-1 cell (OP2-FGFR1) was 73.7 nM; against BaF3 EML4-ALK, 1610 nM.

In the case of `C[C@H]1CNC(=O)c2cnn3cc4c(nc23)N(Cc2cc(F)cnc2O1)C[C@H](O)CO4` [Compound 62, (4S,13S)-9-fluoro-4-hydroxy-13-methyl-4,5,14,15-tetrahydro-3H,7H-19,1-(metheno)[1,4]-oxazepino[3,4-i]pyrazolo[4,3-f]-pyrido[3,2-l][1,4,8,10]oxatria-cyclotridecin-16(13H)-one], the IC50 in the experiment with KM12 (TPM3-TRKA) came to 94.8 nM; in the experiment with KG-1 cell (OP2-FGFR1) it was 681 nM.

Turning to `C[C@@H]1COc2ncc(F)cc2CN2c3nc4c(cnn4cc3OC[C@H]2C#N)C(=O)N1` [Compound 66, (4R,13R)-8-fluoro-13-methyl-15-oxo-3,4,12,13,14,15-hexahydro-6H-18,1-(metheno)[1,4]oxazino[3,4-i]pyrazolo[4,3-f]pyrido[3,2-1][1,4,8,10]oxatriazacyclotridecine-4-carbonitrile], the IC50 in the experiment on KM12 (TPM3-TRKA) turned out to be 463 nM; in the experiment with KG-1 cell (OP2-FGFR1) it was 10000 nM.

As to `C[C@@H]1COc2cn3ncc4c3nc2N1Cc1cc(F)cnc1OCC(O)(O)CNC4=O` [Compound 81, (16R)-12-fluoro-7,7-dihydroxy-16-methyl-5,6,7,8,16,17-hexahydro-4H,14H-1,19-(metheno)[1,4]oxazino[4,3-e]pyrazolo[3,4-h]pyrido[2,3-b][1,5,7,11]oxatriazacyclotetradecin-4-one], the results for the IC50 with KM12 (TPM3-TRKA) and in the experiment with KG-1 cell (OP2-FGFR1) were below 0.2 nM and 166 nM, respectively.

Turning to `C[C@H]1CNC(=O)c2cnn3cc4c(nc23)N(Cc2cc(F)cnc2O1)C[C@@H](O)CO4` [Compound 90, (4R,13S)-9-fluoro-4-hydroxy-13-methyl-4,5,14,15-tetrahydro-3H,7H-19,1-(metheno)[1,4]-oxazepino[3,4-i]pyrazolo[4,3-f]pyrido[3,2-l][1,4,8,10]oxatriaza-cyclotridecin-16(13H)-one], the figures for the IC50 in the experiment with KM12 (TPM3-TRKA) and with KG-1 cell (OP2-FGFR1) were below 0.2 nM and 359 nM, respectively.

Consider `C[C@@H]1COc2ncc(F)cc2CN2C[C@@H](F)COc3cn4ncc(c4nc32)C(=O)N1` [Compound 94, (4R,14R)-4,9-difluoro-14-methyl-4,5,14,15-tetrahydro-3H,7H-19,1-(metheno)[1,4]oxazepino[3,4-i]pyrazolo[4,3-f]pyrido[3,2-l] [1,4,8,10]oxatriazacyclotridecin-16(13H)-one], for which the IC50 in the experiment with KM12 (TPM3-TRKA) worked out at 40.3 nM; with KG-1 cell (OP2-FGFR1), 6110 nM.
